Assay results taken from ChEMBL document CHEMBL1201862, “PubChem BioAssay data set” (2004).
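Interpolation was linear, between the two tested concentrations surrounding the appropriate level; five concentrations were tested over 48 hours in 96-well plates. GI50: concentration for 50% inhibition of growth.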 Active and inactive are the calls of the source. Rule as the data show it: active = GI50 up to about 1.1 µM and inactive = higher.

Key:
Assay in all cases: NCI anticancer screen, dose series, 48 h
[1] = tested on: SNB-19
[2] = tested on: A549
[3] = tested on: A498
[4] = tested on: UACC-257
[5] = tested on: SNB-75
[6] = tested on: NCI-H522
[7] = tested on: EKVX
[8] = tested on: NCI-H460
[9] = tested on: K562
[10] = tested on: OVCAR-4
[11] = tested on: HT-29
[12] = tested on: SW-620
[13] = tested on: HL-60
[14] = tested on: SK-MEL-2
[15] = tested on: SF-295
[16] = tested on: UACC-62

Row | SMILES | GI50 [1] | GI50 [2] | GI50 [3] | GI50 [4] | GI50 [5] | GI50 [6] | GI50 [7] | GI50 [8] | GI50 [9] | GI50 [10] | GI50 [11] | GI50 [12] | GI50 [13] | GI50 [14] | GI50 [15] | GI50 [16]
1 | O=c1c2ccccc2[nH]c(=S)n1-c1ccc(Br)cc1 | > 100 µM (inactive) | 33.3 µM (inactive) | 51.6 µM (inactive) | > 100 µM (inactive) | 30.7 µM (inactive) | 43.1 µM (inactive) | > 100 µM (inactive) | 42.9 µM (inactive) | 43 µM (inactive) | 44.8 µM (inactive) | 44.9 µM (inactive) | 87.1 µM (inactive) | > 100 µM (inactive) | > 100 µM (inactive) | 66.8 µM (inactive) | 
2 | Cc1cccc(NC(=O)CSc2nnc(Cc3ccccc3)o2)c1 | > 100 µM (inactive) | > 100 µM (inactive) | > 100 µM (inactive) | > 100 µM (inactive) | 63.8 µM (inactive) | > 100 µM (inactive) | > 100 µM (inactive) | > 100 µM (inactive) | > 100 µM (inactive) | > 100 µM (inactive) | > 100 µM (inactive) | > 100 µM (inactive) | > 100 µM (inactive) | > 100 µM (inactive) | > 100 µM (inactive) | > 100 µM (inactive)
3 | CCOC(=O)c1c(/C=N\Nc2ccccc2)nc2ccccc2c1-c1ccccc1 | 79.1 µM (inactive) | 50.9 µM (inactive) | 60.4 µM (inactive) | 70.3 µM (inactive) | 46.5 µM (inactive) | 24.9 µM (inactive) | 61.9 µM (inactive) | 37.8 µM (inactive) | 29.5 µM (inactive) | 29.9 µM (inactive) | 37.6 µM (inactive) | 38.1 µM (inactive) | 15 µM (inactive) | 40.8 µM (inactive) | 61.5 µM (inactive) | 25 µM (inactive)
4 | N#CCCN(c1ccc(/C=C2\N=C(c3ccc(Cl)cc3)OC2=O)cc1)S(=O)(=O)c1ccccc1 | > 100 µM (inactive) | > 100 µM (inactive) | > 100 µM (inactive) | > 100 µM (inactive) | 76 µM (inactive) | > 100 µM (inactive) | > 100 µM (inactive) | > 100 µM (inactive) | > 100 µM (inactive) | > 100 µM (inactive) | > 100 µM (inactive) | > 100 µM (inactive) | > 100 µM (inactive) | > 100 µM (inactive) | > 100 µM (inactive) | > 100 µM (inactive)
5 | O=C(CC1(O)C(=O)Nc2ccccc21)c1ccccc1Cl (stereo not given) | > 100 µM (inactive) | > 100 µM (inactive) | > 100 µM (inactive) | > 100 µM (inactive) | > 100 µM (inactive) | 76.6 µM (inactive) | > 100 µM (inactive) | > 100 µM (inactive) | > 100 µM (inactive) | > 100 µM (inactive) | > 100 µM (inactive) | > 100 µM (inactive) | > 100 µM (inactive) | > 100 µM (inactive) | > 100 µM (inactive) | > 100 µM (inactive)
6 | Cc1ccccc1C1CC(c2ccccc2)=NO1 (stereo not given) | > 100 µM (inactive) | > 100 µM (inactive) | > 100 µM (inactive) | > 100 µM (inactive) | > 100 µM (inactive) | > 100 µM (inactive) | > 100 µM (inactive) | > 100 µM (inactive) | > 100 µM (inactive) | > 100 µM (inactive) | > 100 µM (inactive) | > 100 µM (inactive) | > 100 µM (inactive) | > 100 µM (inactive) | > 100 µM (inactive) | > 100 µM (inactive)
7 | Cc1c(C2Cc3ccccc3N2)c2ccccc2n1C (stereo not given) | > 100 µM (inactive) | > 100 µM (inactive) | > 100 µM (inactive) | > 100 µM (inactive) | > 100 µM (inactive) | > 100 µM (inactive) | > 100 µM (inactive) | 79.1 µM (inactive) | > 100 µM (inactive) | > 100 µM (inactive) | > 100 µM (inactive) | > 100 µM (inactive) | > 100 µM (inactive) | > 100 µM (inactive) | > 100 µM (inactive) | > 100 µM (inactive)
8 | O=C1CCC(=O)N2CCCCN12 | > 100 µM (inactive) | > 100 µM (inactive) | > 100 µM (inactive) | > 100 µM (inactive) | > 100 µM (inactive) | > 100 µM (inactive) | > 100 µM (inactive) | > 100 µM (inactive) | > 100 µM (inactive) | > 100 µM (inactive) | > 100 µM (inactive) | > 100 µM (inactive) | > 100 µM (inactive) | > 100 µM (inactive) | > 100 µM (inactive) | > 100 µM (inactive)
9 | CCOC(=O)Cc1csc(Nc2ccccc2[N+](=O)[O-])n1 | > 100 µM (inactive) | > 100 µM (inactive) | > 100 µM (inactive) | > 100 µM (inactive) | > 100 µM (inactive) | > 100 µM (inactive) | > 100 µM (inactive) | > 100 µM (inactive) | > 100 µM (inactive) | > 100 µM (inactive) | > 100 µM (inactive) | > 57.5 µM (inactive) | > 100 µM (inactive) | > 100 µM (inactive) | > 100 µM (inactive) | > 100 µM (inactive)
10 | CN(CCCN1C(=O)c2cccc3cc([N+](=O)[O-])cc(c23)C1=O)CCN(C)CCCN1C(=O)c2cccc3cc([N+](=O)[O-])cc(c23)C1=O | > 39.3 µM (inactive) | 19.2 µM (inactive) | > 39.3 µM (inactive) | > 39.3 µM (inactive) | 20.4 µM (inactive) | > 39.3 µM (inactive) | > 39.3 µM (inactive) | 6.73 µM (inactive) | 4.94 µM (inactive) | 27.4 µM (inactive) | 7.67 µM (inactive) | 2.48 µM (inactive) | 19.6 µM (inactive) | 13.3 µM (inactive) | 22.3 µM (inactive) | 17 µM (inactive)
11 | O=C(Cc1nc2ccccc2s1)C(=O)Nc1ccc(Cl)cc1 | > 100 µM (inactive) | > 100 µM (inactive) | > 100 µM (inactive) | > 100 µM (inactive) | > 100 µM (inactive) | > 100 µM (inactive) | > 100 µM (inactive) | > 100 µM (inactive) | > 100 µM (inactive) | > 100 µM (inactive) | > 100 µM (inactive) | > 100 µM (inactive) | > 100 µM (inactive) | > 100 µM (inactive) | > 100 µM (inactive) | > 100 µM (inactive)
12 | CC1C=C(OC(=O)c2ccccc2)C(=O)C(n2cc(F)c(=O)[nH]c2=O)O1 (stereo not given) | > 100 µM (inactive) | 38.2 µM (inactive) | > 100 µM (inactive) | > 100 µM (inactive) | > 100 µM (inactive) | > 100 µM (inactive) | > 100 µM (inactive) | 19.5 µM (inactive) | 76 µM (inactive) | 53.2 µM (inactive) | 18.9 µM (inactive) | > 100 µM (inactive) | 64.3 µM (inactive) | 79.3 µM (inactive) | > 100 µM (inactive) | 79.4 µM (inactive)
13 | NC(CCCCNCc1ccccc1O)C(=O)O (stereo not given) | > 100 µM (inactive) | > 100 µM (inactive) | > 100 µM (inactive) | > 100 µM (inactive) | 93.5 µM (inactive) | > 100 µM (inactive) | > 100 µM (inactive) | > 100 µM (inactive) | > 100 µM (inactive) | > 100 µM (inactive) | > 100 µM (inactive) | > 100 µM (inactive) | > 100 µM (inactive) | > 100 µM (inactive) | > 100 µM (inactive) | > 100 µM (inactive)
14 | CCC1C(C(=O)Nc2ccccc2C)=C(C)NC(C)=C1c1ccccc1C (stereo not given) | > 100 µM (inactive) | > 78 µM (inactive) | > 100 µM (inactive) | > 100 µM (inactive) | > 100 µM (inactive) | > 100 µM (inactive) | > 100 µM (inactive) | > 44.1 µM (inactive) | 80 µM (inactive) | > 100 µM (inactive) | > 100 µM (inactive) | > 43.1 µM (inactive) | 11.6 µM (inactive) | > 100 µM (inactive) | > 100 µM (inactive) | > 100 µM (inactive)
15 | Cc1ccc2c(c1)SC(c1cc3c(cc1Br)OCO3)S2 (stereo not given) | > 100 µM (inactive) | > 31.6 µM (inactive) | > 31.6 µM (inactive) | > 31.6 µM (inactive) | 0.516 µM (active) | 24.7 µM (inactive) | > 31.6 µM (inactive) | > 31.6 µM (inactive) | 26.9 µM (inactive) | > 31.6 µM (inactive) | 18.7 µM (inactive) | 86.1 µM (inactive) | 22.6 µM (inactive) | > 31.6 µM (inactive) | > 31.6 µM (inactive) | > 31.6 µM (inactive)
16 | COC(=O)[C@@H]1C(=O)O[C@@H](c2cc(OC)c(OC)cc2OC)[C@@H]1C(=O)OC.COC(=O)[C@H]1C(=O)O[C@@H](c2cc(OC)c(OC)cc2OC)[C@@H]1C(=O)OC | > 100 µM (inactive) | > 100 µM (inactive) | > 100 µM (inactive) | > 100 µM (inactive) | > 100 µM (inactive) | > 100 µM (inactive) | > 100 µM (inactive) | > 100 µM (inactive) | > 100 µM (inactive) | > 100 µM (inactive) | > 100 µM (inactive) | > 100 µM (inactive) | > 100 µM (inactive) |  | > 100 µM (inactive) | > 100 µM (inactive)
17 | COC(=O)C1C(C(=O)OC)C2(OC)c3ccccc3-c3ccccc3C12 (stereo not given) | 60 µM (inactive) | 36.4 µM (inactive) | 44 µM (inactive) | 24.2 µM (inactive) | 38.4 µM (inactive) | 20.3 µM (inactive) | 28.7 µM (inactive) | 34.4 µM (inactive) | 19.8 µM (inactive) | 48.2 µM (inactive) | 32.2 µM (inactive) | 48.1 µM (inactive) | 1.97 µM (inactive) | 8.51 µM (inactive) | 38.2 µM (inactive) | 26.1 µM (inactive)
